Here are results for 30 compounds from US10647713B2 (Nimbus Lakshmi, Inc., priority 2016, dated 2020).

One may read the Kd as the equilibrium constant for the complex coming apart. Low readings indicate higher affinity, high ones lower affinity.

Sequence of human TYK2 (JH2domain-pseudokinase) (P29597 556-888): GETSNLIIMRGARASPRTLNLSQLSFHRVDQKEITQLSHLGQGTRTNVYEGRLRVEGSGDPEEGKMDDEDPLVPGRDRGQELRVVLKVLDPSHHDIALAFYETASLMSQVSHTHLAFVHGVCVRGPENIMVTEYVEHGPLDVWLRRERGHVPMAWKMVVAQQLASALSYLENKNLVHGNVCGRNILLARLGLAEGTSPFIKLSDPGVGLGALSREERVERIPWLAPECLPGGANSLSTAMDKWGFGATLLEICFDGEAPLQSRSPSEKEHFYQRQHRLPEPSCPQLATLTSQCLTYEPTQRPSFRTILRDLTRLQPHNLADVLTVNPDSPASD

This assay deals with human TYK2 (JH2domain-pseudokinase) (Homo sapiens (Human), UniProt P29597). The experiment in a line: TYK2 JH2 Domain Binding Assay (KINOMEscan, DiscoveRx). As to conditions: 11-point dilution, duplicate. Put shortly:
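Kd from duplicate 11-point 3-fold dilutions starting at 30,000 nM, fitted by Hill equation with slope fixed at −1. Compounds (final 0.9% DMSO) displace DNA-tagged HEK293-expressed TYK2 JH2 fusion (<0.1 nM) from ligand-coated beads over 1 h at room temperature; eluted kinase read by qPCR.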
For `Cn1cnc(-c2ccc(Nc3cc(NC(=O)C4CC4(F)F)nc4[nH]c(C(F)F)nc34)c(S(C)(=O)=O)c2)c1` (stereo not drawn) [I-381, N-(2-(difluoromethyl)-7-((4-(1-methyl-1H-imidazol-4-yl)-2-(methylsulfonyl)phenyl)amino)-3H-imidazo[4,5-b]pyridin-5-yl)-2,2-difluorocyclopropane-1-carboxamide], the Kd fell in the range of 1000 to 10000 pM.
`Cc1nc2c(Nc3ccc(-c4cncn4C)cc3S(C)(=O)=O)cc(NC(=O)C3CC3(F)F)nc2[nH]1` (stereo not drawn) [I-382, 2,2-difluoro-N-(2-methyl-7-((4-(1-methyl-1H-imidazol-5-yl)-2-(methylsulfonyl)phenyl)amino)-3H-imidazo[4,5-b]pyridin-5-yl)cyclopropane-1-carboxamide] displayed a Kd of 100 to 500 pM.
With `COc1cc(Nc2ccc(-c3ccn(C)n3)cc2S(C)(=O)=O)c2nc(C)[nH]c2n1` [I-383, 5-methoxy-2-methyl-N-(4-(1-methyl-1H-pyrazol-3-yl)-2-(methylsulfonyl)phenyl)-3H-imidazo[4,5-b]pyridin-7-amine], the Kd is over 10000 pM.
The compound `Cc1nc2c(Nc3ccc(-c4cncn4C)cc3N(C)S(C)(=O)=O)cc(NC(=O)C3CC3(F)F)nc2[nH]1` (stereo not drawn) [I-384, 2,2-difluoro-N-(2-methyl-7-((4-(1-methyl-1H-imidazol-5-yl)-2-(N-methylmethylsulfonamido)phenyl)amino)-3H-imidazo[4,5-b]pyridin-5-yl)cyclopropane-1-carboxamide] registered a dissociation constant (Kd) of 500 to 1000 pM.
For `CN(c1cc(-c2cnn(C)c2)ccc1Nc1cc(NC(=O)C2CC2(F)F)nc2[nH]c(C(F)F)nc12)S(C)(=O)=O` (stereo not drawn) [I-385, N-(2-(difluoromethyl)-7-((4-(1-methyl-1H-pyrazol-4-yl)-2-(N-methylmethylsulfonamido)phenyl)amino)-3H-imidazo[4,5-b]pyridin-5-yl)-2,2-difluorocyclopropane-1-carboxamide] the value was 500 to 1000 pM; for `Cn1ccc(-c2ccc(Nc3cc(NC(=O)C4CC4(F)F)nc4[nH]c(C(F)F)nc34)c(S(C)(=O)=O)c2)n1` (stereo not drawn) [I-386, N-(2-(difluoromethyl)-7-((4-(1-methyl-1H-pyrazol-3-yl)-2-(methylsulfonyl)phenyl)amino)-3H-imidazo[4,5-b]pyridin-5-yl)-2,2-difluorocyclopropane-1-carboxamide], 500 to 1000 pM.
For the compound `Cc1nc2c(Nc3ccc(C4CCCCO4)cc3S(C)(=O)=O)cc(NC(=O)C3CC3)nc2[nH]1` (stereo not drawn) [I-387, N-(2-methyl-7-((2-(methylsulfonyl)-4-(tetrahydro-2H-pyran-2-yl)phenyl)amino)-3H-imidazo[4,5-b]pyridin-5-yl)cyclopropanecarboxamide], the dissociation constant Kd is under 100 pM.
Take `Cc1nc2c(Nc3ccc(C4CCOC4)cc3S(C)(=O)=O)cc(NC(=O)C3CC3)nc2[nH]1` (stereo not drawn) [I-388, N-(2-methyl-7-((2-(methylsulfonyl)-4-(tetrahydrofuran-3-yl)phenyl)amino)-3H-imidazo[4,5-b]pyridin-5-yl)cyclopropanecarboxamide]: the equilibrium dissociation constant (Kd) is 100 to 500 pM.
As for `CS(=O)(=O)c1cc(C2CCOC2)ccc1Nc1cc(NC(=O)C2CC2)nc2[nH]c(C(F)F)nc12` (stereo not drawn) [I-389, N-(2-(difluoromethyl)-7-((2-(methylsulfonyl)-4-(tetrahydrofuran-3-yl)phenyl)amino)-3H-imidazo[4,5-b]pyridin-5-yl)cyclopropanecarboxamide], the Kd lay within 500 to 1000 pM.
Compound `Cc1nc2c(Nc3ccc(C4CCCOC4)cc3S(C)(=O)=O)cc(NC(=O)C3CC3)nc2[nH]1` (stereo not drawn) [I-390, N-(2-methyl-7-((2-(methylsulfonyl)-4-(tetrahydro-2H-pyran-3-yl)phenyl)amino)-3H-imidazo[4,5-b]pyridin-5-yl)cyclopropanecarboxamide] displayed a Kd of 100 to 500 pM.
`CS(=O)(=O)c1cc(C2CCCOC2)ccc1Nc1cc(NC(=O)C2CC2)nc2[nH]c(C(F)F)nc12` (stereo not drawn) [I-391, N-(2-(difluoromethyl)-7-((2-(methylsulfonyl)-4-(tetrahydro-2H-pyran-3-yl)phenyl)amino)-3H-imidazo[4,5-b]pyridin-5-yl)cyclopropanecarboxamide] returned an equilibrium dissociation constant (Kd) of 100 to 500 pM.
On to `CS(=O)(=O)c1ccccc1Nc1cc(Nc2cc3c(nn2)CCC3)nc2[nH]c(C(F)F)nc12` [I-392], for which the dissociation constant Kd was under 100 pM.
As to `COCCCc1csc(-c2ccc(Nc3cc(NC(=O)C4CC4)nc4[nH]c(C(F)F)nc34)c(S(C)(=O)=O)c2)n1` [I-393], the Kd was in the range of 500 to 1000 pM.
On to `Cc1nc2c(Nc3ccc(-c4cnn(C)c4C)cc3S(C)(=O)=O)cc(Nc3ccc(C(C)C)c(C#N)n3)nc2[nH]1` [I-394], for which the dissociation constant Kd was 100 to 500 pM.
Turning to `CN=[S@](C)(=O)c1ccccc1Nc1cc(NC(=O)C2CC2)nc2[nH]c(C(F)F)nc12` [I-395], the Kd was 100 to 500 pM.
`CN=[S@@](C)(=O)c1ccccc1Nc1cc(NC(=O)C2CC2)nc2[nH]c(C(F)F)nc12` [I-396] displayed a Kd of 1000 to 10000 pM.
The compound `Cc1ncc(Nc2cc(Nc3ccc(C4CCCCO4)cc3S(C)(=O)=O)c3nc(C(F)F)[nH]c3n2)nc1C` (stereo not drawn) [I-397, 2-(difluoromethyl)-N5-(5,6-dimethylpyrazin-2-yl)-N7-(2-(methylsulfonyl)-4-(tetrahydro-2H-pyran-2-yl)phenyl)-3H-imidazo[4,5-b]pyridine-5,7-diamine] came in with a dissociation constant Kd of 100 to 500 pM.
Regarding `Cc1nc2c(Nc3ccc(C4CCCCO4)cc3S(C)(=O)=O)cc(Nc3cnc(C)c(C)n3)nc2[nH]1` (stereo not drawn) [I-398, N5-(5,6-dimethylpyrazin-2-yl)-2-methyl-N7-(2-(methylsulfonyl)-4-(tetrahydro-2H-pyran-2-yl)phenyl)-3H-imidazo[4,5-b]pyridine-5,7-diamine], the equilibrium dissociation constant (Kd) is under 100 pM.
For `CC1(C)CC(c2ccc(Nc3cc(NC(=O)C4CC4)nc4[nH]c(C(F)F)nc34)c(S(C)(=O)=O)c2)CC(C)(C)O1` [I-399] the value was over 10000 pM; for `COC(C)c1ccc(Nc2cc(NC(=O)C3CC3)nc3[nH]c(C)nc23)c(S(C)(=O)=O)c1` (stereo not drawn) [I-400, N-(7-((4-(1-methoxyethyl)-2-(methylsulfonyl)phenyl)amino)-2-methyl-3H-imidazo[4,5-b]pyridin-5-yl)cyclopropanecarboxamide], 100 to 500 pM.
Compound `CS(=O)(=O)c1cc(C2CCCCO2)ccc1Nc1cc(NC(=O)C2CC2)nc2[nH]c(C(F)F)nc12` (stereo not drawn) [I-401, N-(2-(difluoromethyl)-7-((2-(methylsulfonyl)-4-(tetrahydro-2H-pyran-2-yl)phenyl)amino)-3H-imidazo[4,5-b]pyridin-5-yl)cyclopropanecarboxamide] registered an equilibrium dissociation constant (Kd) of under 100 pM.
`COC(C)c1ccc(Nc2cc(NC(=O)C3CC3)nc3[nH]c(C(F)F)nc23)c(S(C)(=O)=O)c1` (stereo not drawn) [I-402, N-(2-(difluoromethyl)-7-((4-(1-methoxyethyl)-2-(methylsulfonyl)phenyl)amino)-3H-imidazo[4,5-b]pyridin-5-yl)cyclopropanecarboxamide] yielded a Kd of 500 to 1000 pM.
Compound `COc1c(Nc2cc(Nc3ccc(NCCCCl)c(C#N)n3)nc3[nH]c(C)nc23)cccc1-c1nnn(C)n1` [I-403, 3-((3-chloropropyl)amino)-6-((7-((2-methoxy-3-(2-methyl-2H-tetrazol-5-yl)phenyl)amino)-2-methyl-3H-imidazo[4,5-b]pyridin-5-yl)amino)picolinonitrile] yielded a Kd of 500 to 1000 pM.
`Cn1cncc1-c1ccc(Nc2cc(NC(=O)[C@H]3C[C@H]3F)nc3[nH]c(C(F)F)nc23)c(S(C)(=O)=O)c1` [I-405, (1R,2R)—N-(2-(difluoromethyl)-7-((4-(1-methyl-1H-imidazol-5-yl)-2-(methylsulfonyl)phenyl)amino)-3H-imidazo[4,5-b]pyridin-5-yl)-2-fluorocyclopropane-1-carboxamide] displayed a Kd of 100 to 500 pM.
As to `Cc1cn(C)nc1-c1ccc(Nc2cc(NC(=O)[C@@H]3C[C@@H]3F)nc3[nH]c(C(F)F)nc23)c(S(C)(=O)=O)c1` [I-406, (1 S,2S)—N-(2-(difluoromethyl)-7-((4-(1,4-dimethyl-1H-pyrazol-3-yl)-2-(methylsulfonyl)phenyl)amino)-3H-imidazo[4,5-b]pyridin-5-yl)-2-fluorocyclopropane-1-carboxamide], the Kd was under 100 pM.
Compound `Cc1cn(C)nc1-c1ccc(Nc2cc(NC(=O)[C@H]3C[C@H]3F)nc3[nH]c(C(F)F)nc23)c(S(C)(=O)=O)c1` [I-407, (1R,2R)—N-(2-(difluoromethyl)-7-((4-(1,4-dimethyl-1H-pyrazol-3-yl)-2-(methylsulfonyl)phenyl)amino)-3H-imidazo[4,5-b]pyridin-5-yl)-2-fluorocyclopropane-1-carboxamide] gave a Kd of 100 to 500 pM.
With `CP(C)(=O)c1cc(C2CCOCC2)ccc1Nc1cc(NC(=O)C2CC2)nc2[nH]c(C(F)F)nc12` [I-408, N-(2-(difluoromethyl)-7-((2-(dimethylphosphoryl)-4-(tetrahydro-2H-pyran-4-yl)phenyl)amino)-3H-imidazo[4,5-b]pyridin-5-yl)cyclopropanecarboxamide], the equilibrium dissociation constant (Kd) lay in the range of 500 to 1000 pM.
`CS(=O)(=O)c1cc(C2CC2)ccc1Nc1cc(Nc2cc3n(n2)CCCCC3)nc2[nH]c(C(F)F)nc12` [I-409, N7-(4-cyclopropyl-2-(methylsulfonyl)phenyl)-2-(difluoromethyl)-N5-(5,6,7,8-tetrahydro-4H-pyrazolo[1,5-a]azepin-2-yl)-3H-imidazo[4,5-b]pyridine-5,7-diamine]: the Kd lay within 100 to 500 pM.
In turn, `Cc1nc2c(Nc3ccc(C4CC4)cc3S(C)(=O)=O)cc(Nc3cc4n(n3)CCCCC4)nc2[nH]1` [I-410, N7-(4-cyclopropyl-2-(methylsulfonyl)phenyl)-2-methyl-N5-(5,6,7,8-tetrahydro-4H-pyrazolo[1,5-a]azepin-2-yl)-3H-imidazo[4,5-b]pyridine-5,7-diamine] yielded a dissociation constant Kd of 100 to 500 pM.
With `Cc1nc2c(Nc3ccc(C4CCC4)cc3S(C)(=O)=O)cc(NC(=O)[C@@H]3CC3(F)F)nc2[nH]1` [I-411, (S)—N-(7-((4-cyclobutyl-2-(methylsulfonyl)phenyl)amino)-2-methyl-3H-imidazo[4,5-b]pyridin-5-yl)-2,2-difluorocyclopropane-1-carboxamide], the Kd was 1000 to 10000 pM.
